Experimental data: paper PMC11325084, “Pharmacokinetics and tissue distribution of LN002, a new compound alternative oxidase inhibitor against Cryptosporidium in rats” (Frontiers in Pharmacology, 2024)

Assays:
[1] = Tissue distribution of LN002 after oral administration in rats; assay type: in vivo, Sprague–Dawley (SD) rats; conditions: oral 200 mg/kg; for Cmax / Tmax / half-life: both sexes, Sprague-Dawley, rat; for Cmax / Tmax / half-life / AUC0-24 h: SD rats
Protocol: Thirty SD rats (15 for each sex) were randomly and equally assigned to 5 groups (half male and half female). The rats in each group were euthanized with pentobarbital sodium (a dose of 180 mg/kg) at five different time points: 0.5, 2, 6, 12 and 24 h after oral administration at 200 mg/kg LN002. Subsequently, various tissues, including the heart, liver, spleen, lungs, kidneys, brain, muscles, small intestine, and intestinal contents, were promptly collected ([Verma et al., 2022]). The dissected tissues were rinsed with normal saline, dried with an absorbent paper, homogenized using a tissue homogenizer, and stored at a temperature of −20°C until further analysis.
Tissue samples and intestinal contents were accurately weighed to 0.5 ± 0.02 g in a 10 mL EP tube and added with 2 mL of extraction solvent (acetonitrile: methanol [2:1, v/v]). The extraction solvent was vortexed for 1 min and centrifuged at 6,000 rpm and 4°C for 10 min. The supernatant was transferred to a new test tube and vortexed after adding 2 mL of water. The sample was purified using solid-phase extraction (SPE) using methanol as the extraction solvent. The Poly-Sery MAX SPE Cartridge (Shanghai Anpu Experimental Technology Co., Ltd., Shanghai, China) was added with 3 mL of methanol to activate, 3 mL of water to rinse, and the abovementioned extraction solvent. Afterward, 2 mL of 10% methanol water was poured into extraction columns to elute impurities. Finally, 1.5 mL of methanol was added to elute the compound and collect the eluent. Twenty microliters of the eluent was passed through a 0.22 μm filter membrane and then injected into the HPLC system for analysis.
A Shimadzu LC-20A system (Shimadzu Technologies, Kyoto, Japan) equipped with a LabSolutions system (version 5.1) system was used for HPLC analysis. The separation process utilized an ARD-C18 column (250 mm × 4.6 mm, 5 µm) (Zhongpu Technology Co., Ltd., Fuzhou, China). The analytes were detected using a UV detector at 333 nm. The chromatographic conditions used an isocratic mobile phase that combines methanol (solvent A) and deionized water (solvent B) (75:25, v/v), and they were propelled through the column at a constant flow rate of 1 mL/min, ensuring uniform separation. The injection volume was 20 μL. The temperature of the column was set to 40°C.
Pharmacokinetic data were obtained via non-compartmental PK analysis of total concentration versus time profiles for plasma using Phoenix WinNonlin 8.2 (Certara, L.P., Princeton, NJ, United States). Statistical analysis and graphing were undertaken using GraphPad Prism 9.5 for Windows (GraphPad Software, Inc., La Jolla, CA, United States).

[2] = Stability of LN002 in rat plasma, liver homogenate and intestinal contents under storage conditions; assay type: in vitro ADME; set-up: Short-term stability at room temperature (6 h), measured concentration / Freeze and thaw stability at −20°C/Room temperature (3 cycles), measured concentration / Auto-sampler stability (12 h), measured concentration / Long-term stability at −20°C (30 days), measured concentration: unit not given here; conditions: for Auto-sampler stability (12 h), measured concentration / Freeze and thaw stability at −20°C/Room temperature (3 cycles), measured concentration / Long-term stability at −20°C (30 days), measured concentration / Short-term stability at room temperature (6 h), measured concentration: n = 6, mean ± SD
Protocol: By investigating the low, middle, and high-concentration stability of rat plasma, the liver and intestinal contents in six replicates at different storage conditions, autosampler, short-term, freeze and thaw, long-term stability, and stock solution stability evaluations were conducted.

[3] = intestinal contents, n = 6, mean ± SD
[4] = intestinal contents, nominal concentration 50 ng/g
[5] = intestinal contents, nominal concentration 200 ng/g
[6] = intestinal contents, nominal concentration 1,000 ng/g
[7] = liver, nominal concentration 50 ng/g
[8] = liver, nominal concentration 200 ng/g
[9] = liver, nominal concentration 1,000 ng/g
[10] = plasma, nominal concentration 50 ng/mL
[11] = plasma, nominal concentration 200 ng/mL
[12] = plasma, nominal concentration 1,000 ng/mL

Compound `N#C/C(=C\c1c[nH]nc1-c1ccccc1)c1nn(-c2ccccc2)c(N)c1C#N` [LN002, 5-amino-3-[1-cyano-2-(3-phenyl-4-vinopyrazole))-1-phenyl-4-vinopyrazole] has a Cmax ([1]; brain, n = 6, mean ± SD) of 456 ± 80.9 ng/g, a Tmax ([1]; brain, n = 6, mean ± SD) of 0.58 ± 0.19 h and a half-life ([1]; brain, n = 6, mean ± SD) of 5.2 ± 2.31 h. It also gave a Cmax ([1]; heart, n = 6, mean ± SD) of 972 ± 165 ng/g, a Tmax ([1]; heart, n = 6, mean ± SD) of 0.57 ± 0.11 h and a half-life ([1]; heart, n = 6, mean ± SD) of 6.82 ± 1.65 h. The Cmax [1, 3] was 4.45e+06 ng/g, the Tmax [1, 3] was 3.33 ± 1.6 h and the half-life [1, 3] was 1.64 ± 0.01 h. For the same compound, the Cmax ([1]; intestine, n = 6, mean ± SD) was 607000 ng/g, the Tmax ([1]; intestine, n = 6, mean ± SD) was 2.67 ± 1.49 h and the half-life ([1]; intestine, n = 6, mean ± SD) was 5.48 ± 1.48 h. It also gave a Tmax ([1]; kidney, n = 6) of 0.5 h, a Cmax ([1]; kidney, n = 6, mean ± SD) of 561 ± 135 ng/g and a half-life ([1]; kidney, n = 6, mean ± SD) of 5.03 ± 1.52 h. The Cmax ([1]; liver, n = 6, mean ± SD) was 478 ± 157 ng/g, the Tmax ([1]; liver, n = 6, mean ± SD) was 0.67 ± 0.19 h and the half-life ([1]; liver, n = 6, mean ± SD) was 5.54 ± 0.66 h. The Cmax ([1]; lung, n = 6, mean ± SD) was 8700 ± 1410 ng/g, the Tmax ([1]; lung, n = 6, mean ± SD) was 2.09 ± 0.43 h and the half-life ([1]; lung, n = 6, mean ± SD) was 5.43 ± 1.6 h. The Cmax ([1]; muscle, n = 6, mean ± SD) was 3980 ± 589 ng/g, the Tmax ([1]; muscle, n = 6, mean ± SD) was 0.58 ± 0.19 h and the half-life ([1]; muscle, n = 6, mean ± SD) was 6.3 ± 2.71 h. The Tmax ([1]; spleen, n = 6) was 0.5 h, the Cmax ([1]; spleen, n = 6, mean ± SD) was 645 ± 187 ng/g and the half-life ([1]; spleen, n = 6, mean ± SD) was 5.8 ± 1.93 h. For the same compound, the AUC0-24 h ([1]; brain, n = 6, mean ± SD) was 1328.60 ± 176.19 h⋅ng/g, the AUC0-24 h ([1]; heart, n = 6, mean ± SD) was 3855.84 ± 323.04 h⋅ng/g and the AUC0-24 h [1, 3] was 35080673.50 ± 644,065.57 h⋅ng/g. For the same compound, the AUC0-24 h ([1]; intestine, n = 6, mean ± SD) was 2185750.70 ± 149,399.23 h⋅ng/g, the AUC0-24 h ([1]; kidney, n = 6, mean ± SD) was 1781.24 ± 453.85 h⋅ng/g and the AUC0-24 h ([1]; liver, n = 6, mean ± SD) was 4051.62 ± 586.44 h⋅ng/g. For the same compound, the AUC0-24 h ([1]; lung, n = 6, mean ± SD) was 84,344.09 ± 9677.76 h⋅ng/g, the AUC0-24 h ([1]; muscle, n = 6, mean ± SD) was 12,634.31 ± 2366.24 h⋅ng/g and the “Rank order of concentration in tissues and intestinal contents” value ([1]; rats) was “intestinal contents, followed by the small intestine, lung, muscle, heart, liver, spleen, kidney, and brain”. For the same compound, the “Detection in tissues at the last time point (in words)” value ([1]; rats, 24 h) was “detected at 24 h in all tissues and intestinal contents”, the AUC0-24 h ([1]; spleen, n = 6, mean ± SD) was 2280.55 ± 418.06 h⋅ng/g and the “Auto-sampler stability (12 h), measured concentration” value (from here on “Auto-sampler stability (12 h)”) [2, 4] was 0.048 ± 0.001. For the same compound, the “Freeze and thaw stability at −20°C/Room temperature (3 cycles), measured concentration” value (“Freeze and thaw stability” below) [2, 4] was 0.050 ± 0.002, the “Long-term stability at −20°C (30 days), measured concentration” value (shortened to “Long-term stability at −20°C (30 days)”) [2, 4] was 0.048 ± 0.002 and the “Short-term stability at room temperature (6 h), measured concentration” value (from here on “Short-term stability at room temperature”) [2, 4] was 0.051 ± 0.002. The “Auto-sampler stability (12 h)” value [2, 5] was 0.191 ± 0.011, the “Freeze and thaw stability” value [2, 5] was 0.192 ± 0.009 and the “Long-term stability at −20°C (30 days)” value [2, 5] was 0.202 ± 0.003. The “Short-term stability at room temperature” value [2, 5] was 0.204 ± 0.007, the “Auto-sampler stability (12 h)” value [2, 6] was 1.001 ± 0.034 and the “Freeze and thaw stability” value [2, 6] was 0.978 ± 0.053. For the same compound, the “Long-term stability at −20°C (30 days)” value [2, 6] was 0.997 ± 0.012, the “Short-term stability at room temperature” value [2, 6] was 0.976 ± 0.042 and the “Auto-sampler stability (12 h)” value [2, 7] was 0.049 ± 0.002. For the same compound, the “Freeze and thaw stability” value [2, 7] was 0.051 ± 0.002, the “Long-term stability at −20°C (30 days)” value [2, 7] was 0.051 ± 0.002 and the “Short-term stability at room temperature” value [2, 7] was 0.050 ± 0.003. The “Auto-sampler stability (12 h)” value [2, 8] was 0.198 ± 0.007, the “Freeze and thaw stability” value [2, 8] was 0.205 ± 0.005 and the “Long-term stability at −20°C (30 days)” value [2, 8] was 0.196 ± 0.007. For the same compound, the “Short-term stability at room temperature” value [2, 8] was 0.197 ± 0.009, the “Auto-sampler stability (12 h)” value [2, 9] was 1.065 ± 0.036 and the “Freeze and thaw stability” value [2, 9] was 0.985 ± 0.057. For the same compound, the “Long-term stability at −20°C (30 days)” value [2, 9] was 0.995 ± 0.064, the “Short-term stability at room temperature” value [2, 9] was 0.984 ± 0.042 and the “Auto-sampler stability (12 h)” value [2, 10] was 0.050 ± 0.002. The “Freeze and thaw stability” value [2, 10] was 0.048 ± 0.002, the “Long-term stability at −20°C (30 days)” value [2, 10] was 0.052 ± 0.002 and the “Short-term stability at room temperature” value [2, 10] was 0.051 ± 0.003. The “Auto-sampler stability (12 h)” value [2, 11] was 0.204 ± 0.014, the “Freeze and thaw stability” value [2, 11] was 0.197 ± 0.014 and the “Long-term stability at −20°C (30 days)” value [2, 11] was 0.203 ± 0.006. The “Short-term stability at room temperature” value [2, 11] was 0.210 ± 0.013, the “Auto-sampler stability (12 h)” value [2, 12] was 0.992 ± 0.061 and the “Freeze and thaw stability” value [2, 12] was 1.028 ± 0.035. The “Long-term stability at −20°C (30 days)” value [2, 12] was 1.035 ± 0.080, the “Short-term stability at room temperature” value [2, 12] was 0.987 ± 0.032 and the “Stability in plasma and tissue homogenate (in words)” value ([2]; rat plasma, liver, intestinal contents, short-term, freeze and thaw, auto-sampler, long-term) was “stable”.
